Experimental data from US8808666B2, “Peptides that specifically target amyloid deposits” (University of Tennessee Research Foundation, priority 2010, dated 2014).
“Also recorded” adds a separate entry of the source.

What was measured:
AA amyloid = molecular target: T1, AA amyloid (Mus musculus, UniProt P05367); assay: In vivo evaluation of radiolabeled peptides in TRIAD AA mouse model: SPECT imaging, biodistribution, autoradiography; settings: for autoradiography: binding to AA amyloid in the necrotic renal papillae in vivo: mouse; for SPECT imaging of 125I-labeled fusion peptides in AA mice versus WT: mice with visceral AA amyloidosis
T1 construct: from tissue; host or cells: living TRIAD mice with systemic peripheral AA amyloidosis
T1 sequence (P05367 20-95 limits assumed): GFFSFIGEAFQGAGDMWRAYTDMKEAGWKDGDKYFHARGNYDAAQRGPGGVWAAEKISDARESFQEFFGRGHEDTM
Description: Based on the data obtained with protamines, in the Examples below, peptides that are positively charged are selected. They were labeled with radioiodine (I-125 and I-123) or technetium (Tc-99m) tested for in vivo binding to systemic AA amyloid deposits in the transgenic rapidly inducible amyloid disease (TRIAD) murine model by microSPECT or microPET imaging. The tissue biodistribution of each were assessed by gamma counting and the micro-distribution determined by autoradiography. Further, preliminary examinations were performed of the binding of biotinylated forms of these peptides with formalin-fixed, paraffin-embedded, amyloid-containing tissue sections from patients with AL κ and λ amyloidosis, Alzheimer's disease, Transthyretin amyloidsis (ATTR), serum amyloid protein A amyloidosis (AA), fibrinogen α amyloidosis (AFibα), calcifying epithelium odontogenic tumor amyloid (AODAM), galectin 7 amyloidosis (AGal), and Lect2 amyloidosis (ALECT2).
Two methods of radiolabeling the peptides were employed. For radioiodination, the direct oxidative iodination of tyrosyl groups on the peptides was employed. This method yields product with high specific activity (˜10-20 μCi/μg) of pure ^125I-labeled peptide. The second method involves radiolabeling the peptides with ^99mTc according to the method of Tran et al. (Bioconjugate Chem, 2007, 18, 549-558). The quality of each radiolabeled peptide was assessed by SDS-PAGE (15% poly-acrylamide) analyzed with quantitative phosphor imaging.
Each of the radiolabeled peptides were evaluated for its specific reactivity with amyloids in vivo, using the TRIAD AA mouse model, by using SPECT imaging, biodistribution measurements, and autoradiography. The reactivity of the radiolabeled peptides were assessed in transgenic rapidly inducible amyloid disease (TRIAD) mice with systemic peripheral AA amyloidosis as well as control (amyloid free) mice, by imaging the mice. The reactivity of the peptides were evaluated at 1 hour, 2 hours, 4 hours, 8 hours, 12 hours, or 24 hours post injection of the radiolabeled peptides. […] The other peptides also bound amyloids, but not as well as these.
In a dual-energy imaging experiment, peptide p31 was labeled with Tc^99m and SAP labeled with I^125 and the binding of each radiotracer was examined by using dual-energy microSPECT imaging in an individual TRIAD mouse with AA amyloidosis.
To examine the kinetics of the reactivity of peptides p48, p31, and p31-GGGY, dynamic PET imaging of I^124-labeled peptides p48, p31, p31-GGGY, and p50 (as a control) was performed in TRIAD mice with AA amyloidosis or wild type mice without amyloid. Finally, in a preliminary study, the binding of I^125-labeled SAP and Tc^99m-labeled peptide p31 was compared in the same TRIAD mouse with AA amyloidosis.

[1] = system: amyloid deposits in tissues from patients with light chain (AL) amyloidosis, Alzheimer's disease and other forms of amyloidosis; assay: Biotinylated peptide overlay on formalin-fixed paraffin embedded patient tissues; assay type: binding, human; settings: formalin-fixed paraffin embedded tissue sections
Description: The reactivity of biotinylated peptide p31 with amyloid deposits in formalin-fixed paraffin embedded tissues from patients with light chain (AL) amyloidosis, or Alzheimer's disease, and other forms of amyloidosis was examined.
(§1) To catalog the range of amyloids that p31 and other peptides may bind, biotinylated peptides using the biotinyl-maleimide adduct which interacts specifically with the solitary Cys residue in the “leader” sequence were prepared. The peptides were overlaid onto formalin-fixed 6 μm-thick amyloid-containing tissue sections, incubated overnight and then the distribution visualized using standard immunohistochemical techniques.

ACEOT amyloid (ODAM) = assay: Biotinylated peptide overlay on amyloid-containing tissue sections; assay type: binding, human
Description: as §1

[2] = system: AFibα amyloid (Fibrinogen α); assay: as above; assay type: binding, human
Description: as §1

[3] = system: ALκ amyloid (κ light chains); assay: as above; assay type: binding, human
Description: as §1

[4] = system: ALλ amyloid (λ light chains); assay: as above; assay type: binding, human; settings: overnight incubation, 6 μm-thick sections
Description: as §1

[5] = system: AA amyloid (Serum amyloid protein A); assay: as above; assay type: binding; settings: AA (human and canine)
Description: as §1

[6] = molecular target: T2, AGal amyloid (Galectin 7) (Homo sapiens, UniProt P47929); assay: as above; assay type: binding
T2 construct: from tissue; host or cells: formalin-fixed patient tissue sections
Description: as §1

ALECT2 amyloid (Lectin2) = molecular target: T3, ALECT2 amyloid (Lectin2) (Homo sapiens, UniProt O14960); assay: as above; assay type: binding
T3 construct: from tissue; host or cells: formalin-fixed patient tissue sections
T3 sequence (O14960 19-151): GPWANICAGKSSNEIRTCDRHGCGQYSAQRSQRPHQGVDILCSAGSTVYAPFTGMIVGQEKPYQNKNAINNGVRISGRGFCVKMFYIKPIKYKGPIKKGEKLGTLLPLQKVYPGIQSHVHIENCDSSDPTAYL
Description: as §1

[7] = molecular target: T4, ATTR amyloid (Transthyretin) (Homo sapiens, UniProt P02766); assay: as above; assay type: binding
T4 construct: amyloid-containing tissue sections from patients with AL κ and λ amyloidosis, Alzheimer's disease, Transthyretin amyloidsis (ATTR); from tissue; host or cells: formalin-fixed patient tissue sections
Description: as §1

[8] = molecular target: T5, Aβ amyloid (Amyloid β peptide in Alzheimer's disease) (Homo sapiens, UniProt P05067); assay: as above; assay type: binding
T5 construct: Amyloid β peptide in Alzheimer's; from tissue; host or cells: formalin-fixed tissue sections from Alzheimer's disease patients
Description: as §1

[9] = system: ApoA2c amyloid-laden tissues; assay: Ex vivo amyloid binding assay with homogenized tissue of ApoA2c mice; parameters: species or system mouse; settings: for binding to ApoA2c amyloid-laden tissues in vitro: 125I-labeled, 1 h incubation, gamma counting
Description: (§2) The novel peptide, p5R+14, was radiolabeled with ^125I via an oxidation reaction with chloramine T. The labeled peptide was separated from free iodide using size exclusion chromatography on a Sephadex G25 column. For ex vivo amyloid binding assays, the ^125I-labeled p5 and p5R+14 peptides were added to 50 μL of homogenized tissue derived from wild type or amyloid laden ApoA2c mice. After a 1 h incubation, the amount of bound peptide (% of total) was assessed by gamma counting following centrifugation. For in vivo imaging, peptides p5 and p5R+14 were radiolabeled as above, and the radiopurities were determined by using SDS-PAGE and phosphor imaging.

ApoA2c amyloid = assay: In vivo SPECT/CT imaging, biodistribution and micro-autoradiography in ApoA2c mice; parameters: species or system mouse; settings: for SPECT/CT uptake in amyloid-laden tissues: 2 or 4 h pi; for biodistribution, tissue-to-muscle ratios, ApoA2c versus WT tissues: mouse, in vivo
Description: as §2
Approximately 200 μCi was injected iv in the lateral tail vein of ApoA2c mice (n=3). SPECT/CT images were acquired using the Inveon Tri-Modality System at 2 or 4 h pi. Organs were harvested and biodistribution of radiotracers was determined and recorded as % injected dose/gram. For comparisons between the peptides, tissue to muscle ratios were used. The tissues were then fixed in formalin, paraffin embedded, sectioned and exposed to photographic emulsion for ˜3 days.

AA amyloid deposits = molecular target: T6, AA amyloid deposits (Mus musculus, UniProt P05367)
T6 sequence (P05367 20-95 limits assumed): T1 sequence (P05367 20-95 limits assumed)
Description: Following radioiodination, ^125I-labeled protamine (^125I-protamine) was administered to animals with severe systemic AA amyloidosis mice or to amyloid-free mice and allowed to circulate for 1 hour, 2 hours, 4 hours, 8 hours or 24 hours. At each time point high-resolution microSPECT/CT images were acquired and the tissue distribution of the radioactivity determined by gamma counting. Finally, 6 μm-thick tissue sections were prepared for autoradiography and histological evaluation of the micro-distribution of the radiolabeled peptides and amyloid deposits, respectively.

T2 sequence (P47929 whole entry): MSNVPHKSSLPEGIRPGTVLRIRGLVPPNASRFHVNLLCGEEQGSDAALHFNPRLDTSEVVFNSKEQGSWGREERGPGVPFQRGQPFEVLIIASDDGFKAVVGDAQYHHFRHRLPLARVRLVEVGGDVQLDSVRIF

## CGGYSKAQKAQAKQAKQAQKAQKAQAKQAKQ (Heparin-binding peptide) [p31]
AA amyloid; 99mTc-labeled peptide, 125I-labeled SAP, same mouse
  SPECT imaging of AA amyloid compared to SAP: as effective as SAP; also recorded: the same as that for SAP
AA amyloid; 125I-labeled
  SPECT distribution in AA mouse compared to WT control: totally different
AA amyloid; 24 h post-injection
  retention on AA amyloid in vivo (SPECT images and biodistribution): remained bound to the AA amyloid in vivo
AA amyloid; TRIAD AA mouse model, 1-24 hours post injection
  specific amyloid binding, ranking from in vivo imaging studies: best specific amyloid binding reagents
AA amyloid; compared to SAP
  autoradiography: reactivity with murine pancreatic AA amyloid: greater reactivity with murine pancreatic AA amyloid as compared to SAP
AA amyloid; mice
  biodistribution: amount of amyloid bound compared to SAP: binds more amyloid in vivo
AA amyloid
  autoradiography: binding to AA amyloid in the necrotic renal papillae in vivo: binds AA amyloid in the necrotic renal papillae
[1]
  binding of biotinylated peptide to tissue amyloid: bound tissue amyloid from these patients with great affinity; also recorded: selectively bound to the amyloids in the tissue section
ACEOT amyloid (ODAM)
  binding to amyloid in tissue sections: specifically binds significantly
[2]
  binding to amyloid in tissue sections: specifically binds significantly
[3]
  binding to amyloid in tissue sections: specifically binds significantly
[4]
  binding to amyloid in tissue sections: specifically binds significantly
[5]
  binding to amyloid in tissue sections: specifically binds significantly
[6]
  binding to amyloid in tissue sections: specifically binds significantly
ALECT2 amyloid (Lectin2)
  binding to amyloid in tissue sections: specifically binds significantly
[7]
  binding to amyloid in tissue sections: specifically binds significantly
[8]
  binding to amyloid in tissue sections: specifically binds significantly

## GGGYSKAQKAQAKQAKQAQKAQKAQAKQAKQ [p31-GGGY]
[9]
  binding to ApoA2c amyloid-laden tissues in vitro: able to bind
ApoA2c amyloid; ApoA2c mice
  uptake of radiotracer in splenic amyloid in vivo: no uptake
  SPECT/CT uptake in amyloid-laden tissues: lack of positive amyloid uptake
ApoA2c amyloid; ApoA2c mice, listed as 125I-p5
  micro-autoradiography of tissues: only slight uptake
ApoA2c amyloid; ApoA2c mice, listed as p5
  micro-autoradiography of tissues: scant amounts
ApoA2c amyloid
  biodistribution, tissue-to-muscle ratios, ApoA2c versus WT tissues: not significantly higher

## GGGYSRAQRAQARQARQAQRAQRAQARQARQAQRAQRAQARQARA [p31RGGGY + 14]
[9]
  binding to ApoA2c amyloid-laden tissues in vitro: able to bind
[9]; tissues of ApoA2c-amyloid mouse, listed as p5R+14
  amount bound compared between p5R+14 and p5: bound in greater amounts to all tissue samples as compared to p5; also recorded: higher binding in every tissue of interest
ApoA2c amyloid; ApoA2c mice
  micro-autoradiography of tissues: localized to amyloid within the tissues
ApoA2c amyloid; ApoA2c mice, listed as 125I-p5R+14
  SPECT/CT uptake in amyloid-laden tissues: uptake of ^125I-p5R+14 in amyloid-laden tissues such as the heart, liver, spleen and intestines; also recorded: cardiac uptake is not part of blood pool clearance
ApoA2c amyloid; ApoA2c mice, listed as p5R+14
  SPECT/CT uptake in amyloid-laden tissues: bound cardiac amyloid deposits as well as those in the liver, spleen and intestines
ApoA2c amyloid
  biodistribution, tissue-to-muscle ratios, ApoA2c versus WT tissues: clearly more p5R+14 binding to the diseased tissues

## GGYSKAQKAQAKQAKQAQKAQKAQAKQAKQGGTFFYGGSRGKRNNFKTEEY [WAL14465]
AA amyloid
  SPECT imaging of 125I-labeled fusion peptides in AA mice versus WT: retained by the amyloid deposits in the liver spleen and kidneys

## RRLSYSRRRFCGGYSKAQKAQAKQA KQAQKAQKAQAKQAKQ (RRLSYSRRRFCGGYSKAQKAQAKQAKQAQKAQKAQAKQAKQ) [Syb3-p31, fusion of p31 with cell penetrating peptide]
AA amyloid
  SPECT imaging of 125I-labeled fusion peptides in AA mice versus WT: retained by the amyloid deposits in the liver spleen and kidneys

## SAP: Serum amyloid P component, the gold standard amyloid imaging agent; decameric, Mw ~250 kD [reference compound]
AA amyloid
  autoradiography: binding to AA amyloid in the necrotic renal papillae in vivo: does not

## YGRKKRRQRRRCGGYSKAQKAQAKQAKQAQKAQKAQAKQAKQ [TAT-p31, fusion of p31 with cell penetrating peptide]
AA amyloid
  SPECT imaging of 125I-labeled fusion peptides in AA mice versus WT: retained by the amyloid deposits in the liver spleen and kidneys

## protamine
AA amyloid deposits; AA mice
  microSPECT distribution in AA mice: sequestered by amyloid deposits in the liver, kidney, pancreas and spleen
AA amyloid deposits; AA mice, notably liver
  micro-autoradiography association with amyloid: preferentially associated with the AA amyloid
AA amyloid deposits; amyloid-free mice
  accumulation in organs or tissues of amyloid-free mice: little or no specific accumulation
AA amyloid deposits; liver, kidney, pancreas, spleen, stomach, gamma counting
  calculated tissue:muscle ratios, mice with AA versus amyloid-free mice: at least 2 fold
AA amyloid deposits; mouse, in vivo
  fate of radiolabel in control mice: rapidly dehalogenated
